In BindingDB's records for patent US11414404 (Array BioPharma Inc., 2022):
pIC50: −log10 of the molar value.

Biological target: Serine/threonine-protein kinase B-raf [V600E] (Homo sapiens, UniProt P15056, V600E)
Assay: BRAF V600E and V600K Enzyme Assay
Description: A competitive displacement assay was configured for B-Raf that monitors the amount of a fluorescently-tagged tracer bound to B-Raf via TR-FRET from an anti-tag Eu-labeled antibody also bound to B-Raf.

Sequence of Serine/threonine-protein kinase B-raf [V600E] (P15056 2-766 V600E limits assumed): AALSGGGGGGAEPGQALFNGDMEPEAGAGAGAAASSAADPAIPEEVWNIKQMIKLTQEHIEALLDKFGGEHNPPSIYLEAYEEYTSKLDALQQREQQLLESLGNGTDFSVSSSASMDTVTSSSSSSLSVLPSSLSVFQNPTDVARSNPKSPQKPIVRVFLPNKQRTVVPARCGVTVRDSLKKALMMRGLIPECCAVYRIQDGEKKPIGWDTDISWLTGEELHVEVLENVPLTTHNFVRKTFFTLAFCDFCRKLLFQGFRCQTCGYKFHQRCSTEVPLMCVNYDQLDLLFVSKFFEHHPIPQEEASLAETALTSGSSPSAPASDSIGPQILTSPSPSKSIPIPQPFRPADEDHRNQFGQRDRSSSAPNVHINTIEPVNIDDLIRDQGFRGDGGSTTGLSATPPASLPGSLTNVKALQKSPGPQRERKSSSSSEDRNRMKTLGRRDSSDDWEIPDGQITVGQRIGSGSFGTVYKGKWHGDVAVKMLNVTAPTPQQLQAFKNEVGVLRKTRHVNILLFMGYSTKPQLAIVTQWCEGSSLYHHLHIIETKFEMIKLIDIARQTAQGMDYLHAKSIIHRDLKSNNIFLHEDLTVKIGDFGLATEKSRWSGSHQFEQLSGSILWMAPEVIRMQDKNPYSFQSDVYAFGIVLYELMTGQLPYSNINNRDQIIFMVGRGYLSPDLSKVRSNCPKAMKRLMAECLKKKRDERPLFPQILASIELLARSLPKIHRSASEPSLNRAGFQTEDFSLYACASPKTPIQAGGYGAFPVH

Structure (SMILES): Cc1c(Nc2c(F)cnc(NS(=O)(=O)CC3CC3)c2Cl)ccc2ncn(C)c(=O)c12 [US11414404, Ex. # 47]
- pIC50: 7.38

Structure (SMILES): Cc1c(Nc2c(F)ccc(NS(=O)(=O)CC3CC3)c2Cl)ccc2ncn(C)c(=O)c12 [US11414404, Ex. # 50]
- pIC50: 7.18

Structure (SMILES): Cc1c(Nc2c(F)ccc(NS(=O)(=O)CC(C)C)c2Cl)ccc2ncn(C)c(=O)c12 [US11414404, Ex. # 51]
- pIC50: 7.20
